# Measurements: patent publication US6964870B2, “Enhanced selection of genetically modified pine embryogenic tissue” (MeadWestvaco Corporation, priority 2000, dated 2005)
# Key:
# Format in all cases: cell-based
# [1] = tested on: P. taeda embryogenic cell line P6; test: Agrobacterium transformation, transformants per selection plate with ABA in preparation/recovery/selection media
# From the text: (§1) Seven loblolly pine cell lines or hybrid cell lines from seven widely diverse genetic backgrounds were used in this experiment. To prepare for gene transfer using Agrobacterium, fabric supports were sterilized by autoclaving and placed in a sterile Buchner funnel, and one to five milliliters of embryogenic suspension was pipetted onto each support such that the embryogenic tissue was evenly distributed over its surface. Following this the liquid medium was suctioned from the tissues and each support bearing the embryogenic tissue was placed on gelled medium for inoculation by Agrobacterium. In this case the medium used was the same as the preparation medium described in Example 1 above, except that the medium, used here for preparation and co-cultivation of the cells, contained ABA at 0, 10, or 30 mg/L as an experimental condition. Genes were then introduced into the plant material by co-cultivation with Agrobacterium(Wenck et al. 1999). Specifically, gene constructs containing a reporter gene and a selectable marker were introduced into Agrobacterium tumefaciens strain EHA105 with the virulence-enhancing plasmid pTOK47 (Wenck et al. 1999), by techniques well known to those skilled in the art, and virulence was then induced with administration of acetosyringone by commonly used techniques, well known to those skilled in the art, whereupon the induced Agrobacterium was dripped over the plant material and these were co-cultivated in the dark at 23°±2° C. for approximately 24-72 hours. Those skilled in the art recognize that many different gene constructs, plasmids, strains, media, and co-cultivation times and protocols would be suitable for use in the present method.
# (§2) Following co-cultivation, cells were re-suspended into fresh DCR4 liquid wash medium (Table 2) containing eradicants such as 200-400 mg/L TIMENTIN® antibiotic. The DCR4 liquid wash medium was contained in sterile “baby food” jars with MAGENTA® aerated lids, conventional beakers, or multi-well plates. Resuspension was initiated by grasping the membrane support bearing the infected cells, using forceps, and rolling or folding it so that it could be taken up and placed into the liquid in the wash container. The liquid was then agitated to get the cells into suspension, and the membrane support was scraped with sterile forceps if cells appeared to be adhering to it. Once the cells were in suspension, the membrane was removed with sterile forceps.
# (§3) Following this wash step, the cells were plated onto fresh sterile support membranes of the same type as used in the previous step, again by placing the fresh sterile support membranes in a sterile Buchner funnel, pipetting the suspension of plant cells onto the membranes, and again suctioning the liquid medium from the tissues using a mild vacuum. The cells were again resuspended in and cultured in fresh sterile wash medium by agitating the membrane bearing the cells in the liquid, again removing cells that appeared to be adhering by gently scraping with forceps. The cells were then re-plated on fresh membrane supports over Buchner funnels. This procedure was repeated twice before the cells were again plated on supports as described above.
# (§4) Supports bearing approximately 0.1 g of embryogenic tissue were divided onto recovery media (having the same formulation as the maintenance medium except for the addition of 400 mg/L TIMENTIN® antibiotic) either containing or lacking ABA. […] Concentrations of ABA used in all these media were 0, 10, and 30 mg/l.
# (§5) Cells were maintained on the selection media, with transfer of the polyester support membranes to fresh selection media of the same composition, every two weeks for a total of eight weeks of selection. Cells from actively growing sublines from selection were examined using stereomicroscopes for the expression of the visual marker gene uidA at the conclusion of the selection period. […]
# [2] = tested on: P. taeda embryogenic cell line P5; test: as above
# From the text: as §1, §2, §3, §4, §5
# [3] = tested on: P. taeda embryogenic cell line P1; test: as above
# From the text: as §1, §2, §3, §4, §5
# [4] = tested on: P. rigida Hybrid embryogenic cell line H1; test: as above
# From the text: as §1, §2, §3, §4, §5
# [5] = tested on: P. taeda embryogenic cell line P3; test: as above
# From the text: as §1, §2, §3, §4, §5
# [6] = tested on: P. taeda embryogenic cell line P4; test: as above
# From the text: as §1, §2, §3, §4, §5
# [7] = tested on: P. taeda embryogenic cell line P2; test: as above
# From the text: as §1, §2, §3, §4, §5
# [8] = tested on: loblolly pine cell lines or hybrid cell lines; test: ABA in culture media during and after co-cultivation with Agrobacterium, all lines (Example 4)
# From the text: as §1, §4
# Cells were maintained on the selection media, with transfer of the polyester support membranes to fresh selection media of the same composition, every two weeks for a total of eight weeks of selection. Cells from actively growing sublines from selection were examined using stereomicroscopes for the expression of the visual marker gene uidA at the conclusion of the selection period. All of the sublines capable of active growth on selection medium were seen to express levels of the visual marker gene product that enabled them to be readily distinguished from non-selected cells. This continuing expression of the transgenes after at least twelve weeks following bombardment confirmed the integration of the transgenes in these sublines. […]
# [9] = tested on: embryogenic lines of crosses with P. taeda selection 7-56; test: Recovery of transformants from elite crosses with ABA in selection media (Agrobacterium and bombardment experiments)
# [10] = ABA mg/l in preparation/recovery/selection medium 0/0/10
# [11] = ABA mg/l in preparation/recovery/selection medium 0/0/30
# [12] = ABA mg/l in preparation/recovery/selection medium 0/10/10
# [13] = ABA mg/l in preparation/recovery/selection medium 0/10/30
# [14] = ABA mg/l in preparation/recovery/selection medium 0/30/30
# [15] = ABA mg/l in preparation/recovery/selection medium 10/10/10
# [16] = ABA mg/l in preparation/recovery/selection medium 30/10/10
# [17] = ABA mg/l in preparation/recovery/selection medium 30/30/30
smiles,measurement,setting,value
"CC1=CC(=O)CC(C)(C)[C@@]1(O)/C=C/C(C)=C\C(=O)O [ABA, abscisic acid]",Average (n = 12) Number of Transformants observed per Selection Plate,[1]; [10],3.9 +/− 1.5
same,Average (n = 12) Number of Transformants observed per Selection Plate,[1]; [11],3.3 +/− 2.8
same,Average (n = 12) Number of Transformants observed per Selection Plate,[1]; [12],3.2 +/− 1.4
same,Average (n = 12) Number of Transformants observed per Selection Plate,[1]; [13],3.2 +/− 1.5
same,Average (n = 12) Number of Transformants observed per Selection Plate,[1]; [14],2.3 +/− 2.6
same,Average (n = 12) Number of Transformants observed per Selection Plate,[1]; [15],4.5 +/− 1.3
same,Average (n = 12) Number of Transformants observed per Selection Plate,[1]; [16],3.1 +/− 2.3
same,Average (n = 12) Number of Transformants observed per Selection Plate,[1]; [17],2.3 +/− 1.1
same,Average (n = 12) Number of Transformants observed per Selection Plate,[2]; [10],18.1 +/− 4.0
same,Average (n = 12) Number of Transformants observed per Selection Plate,[2]; [11],5.5 +/− 3.1
same,Average (n = 12) Number of Transformants observed per Selection Plate,[2]; [12],2.4 +/− 2.0
same,Average (n = 12) Number of Transformants observed per Selection Plate,[2]; [13],7.2 +/− 2.1
same,Average (n = 12) Number of Transformants observed per Selection Plate,[2]; [14],3.3 +/− 2.1
same,Average (n = 12) Number of Transformants observed per Selection Plate,[2]; [15],10.3 +/− 2.4
same,Average (n = 12) Number of Transformants observed per Selection Plate,[2]; [16],11.3 +/− 2.4
same,Average (n = 12) Number of Transformants observed per Selection Plate,[2]; [17],14.3 +/− 3.5
same,Average (n = 12) Number of Transformants observed per Selection Plate,[3]; [10],0.3 +/− 0.9
same,Average (n = 12) Number of Transformants observed per Selection Plate,[3]; [11],0.0 +/− 0.0
same,Average (n = 12) Number of Transformants observed per Selection Plate,[3]; [12],0.0 +/− 0.0
same,Average (n = 12) Number of Transformants observed per Selection Plate,[3]; [13],0.1 +/− 0.3
same,Average (n = 12) Number of Transformants observed per Selection Plate,[3]; [14],0.8 +/− 0.6
same,Average (n = 12) Number of Transformants observed per Selection Plate,[3]; [15],1.3 +/− 0.9
same,Average (n = 12) Number of Transformants observed per Selection Plate,[3]; [16],0.3 +/− 0.5
same,Average (n = 12) Number of Transformants observed per Selection Plate,[3]; [17],0.4 +/− 0.8
same,Average (n = 12) Number of Transformants observed per Selection Plate,[4]; [10],27.0 +/− 11.2
same,Average (n = 12) Number of Transformants observed per Selection Plate,[4]; [11],21.1 +/− 6.5
same,Average (n = 12) Number of Transformants observed per Selection Plate,[4]; [12],19.0 +/− 6.5
same,Average (n = 12) Number of Transformants observed per Selection Plate,[4]; [13],21.6 +/− 8.6
same,Average (n = 12) Number of Transformants observed per Selection Plate,[4]; [14],15.1 +/− 4.9
same,Average (n = 12) Number of Transformants observed per Selection Plate,[4]; [15],21.9 +/− 8.4
same,Average (n = 12) Number of Transformants observed per Selection Plate,[4]; [16],22.9 +/− 10.1
same,Average (n = 12) Number of Transformants observed per Selection Plate,[4]; [17],21.8 +/− 9.9
same,Average (n = 12) Number of Transformants observed per Selection Plate,[5]; [10],21.7 +/− 3.6
same,Average (n = 12) Number of Transformants observed per Selection Plate,[5]; [11],22.3 +/− 5.4
same,Average (n = 12) Number of Transformants observed per Selection Plate,[5]; [12],23.3 +/− 2.8
same,Average (n = 12) Number of Transformants observed per Selection Plate,[5]; [13],26.0 +/− 6.9
same,Average (n = 12) Number of Transformants observed per Selection Plate,[5]; [14],18.6 +/− 5.1
same,Average (n = 12) Number of Transformants observed per Selection Plate,[5]; [15],22.6 +/− 4.3
same,Average (n = 12) Number of Transformants observed per Selection Plate,[5]; [16],21.6 +/− 3.6
same,Average (n = 12) Number of Transformants observed per Selection Plate,[5]; [17],21.1 +/− 2.3
same,Average (n = 12) Number of Transformants observed per Selection Plate,[6]; [10],27.5 +/− 11.4
same,Average (n = 12) Number of Transformants observed per Selection Plate,[6]; [11],34.9 +/− 9.7
same,Average (n = 12) Number of Transformants observed per Selection Plate,[6]; [12],28.8 +/− 11.6
same,Average (n = 12) Number of Transformants observed per Selection Plate,[6]; [13],30.9 +/− 9.3
same,Average (n = 12) Number of Transformants observed per Selection Plate,[6]; [14],28.6 +/− 7.6
same,Average (n = 12) Number of Transformants observed per Selection Plate,[6]; [15],27.8 +/− 9.0
same,Average (n = 12) Number of Transformants observed per Selection Plate,[6]; [16],22.7 +/− 7.0
same,Average (n = 12) Number of Transformants observed per Selection Plate,[6]; [17],27.3 +/− 7.4
same,Average (n = 12) Number of Transformants observed per Selection Plate,[7]; [10],5.8 +/− 2.3
same,Average (n = 12) Number of Transformants observed per Selection Plate,[7]; [11],8.8 +/− 4.8
same,Average (n = 12) Number of Transformants observed per Selection Plate,[7]; [12],1.0 +/− 1.0
same,Average (n = 12) Number of Transformants observed per Selection Plate,[7]; [13],0.3 +/− 0.5
same,Average (n = 12) Number of Transformants observed per Selection Plate,[7]; [14],5.2 +/− 6.1
same,Average (n = 12) Number of Transformants observed per Selection Plate,[7]; [15],10.0
same,Average (n = 12) Number of Transformants observed per Selection Plate,[7]; [16],5.9 +/− 2.4
same,Average (n = 12) Number of Transformants observed per Selection Plate,[7]; [17],5.3 +/− 2.5
same,necrotic foci in somatic embryogenic masses,"[8]; 10 or 30 mg/L ABA during and after co-cultivation with Agrobacterium vs media without ABA, all lines",fewer necrotic foci
same,effect on observation of transformants,[8]; 10 or 30 mg/l ABA in the preparation medium,neutral or beneficial
same,doubling of somatic embryogenic masses,"[8]; ABA in recovery medium after co-cultivation with Agrobacterium vs no ABA, certain P. taeda lines and hybrids",able to double more rapidly
same,effect on observation of transformants,[8]; ABA in the recovery medium,similarly neutral or beneficial
same,lines attempted from which transformants recovered,"[9]; cross 7-56×9-6, ABA in the selection media",more than 80%
same,lines attempted from which transformants recovered,"[9]; crosses with elite P. taeda selection 7-56 as a parent, ABA in selection media, media containing 5-30 mg/L ABA",more than 80%
